According to publication PMC9948161 (ACS Omega, 2023):

Key:
[1] = system: MCF-7 breast cancer cell line; assay: MTT in vitro antiproliferative assay; type: cell-based; details: Homo sapiens, MCF7, 24 h, read-out: IC50 on the human MCF-7 cell line
[2] = system: human red blood cell (HRBC) membrane; assay: HRBC membrane stabilization assay; type: cell-based; details: Erythrocyte, read-out: percentage of inhibition of hemolysis (HRBC membrane stabilization)
VEGFR2 kinase = VEGFR2 kinase (Homo sapiens, UniProt P35968); assay: biochemical
MCF-7 cells [3] = assay: Cell cycle analysis by propidium iodide flow cytometry; type: cell-based, human; details: MCF-7, 1.29 μM, 24 h; untreated control 2.4
MCF-7 cells [4] = assay: Wound healing; type: cell-based, human; details: MCF-7, IC50 concentration

Sequence of VEGFR2 kinase (P35968 20-1356): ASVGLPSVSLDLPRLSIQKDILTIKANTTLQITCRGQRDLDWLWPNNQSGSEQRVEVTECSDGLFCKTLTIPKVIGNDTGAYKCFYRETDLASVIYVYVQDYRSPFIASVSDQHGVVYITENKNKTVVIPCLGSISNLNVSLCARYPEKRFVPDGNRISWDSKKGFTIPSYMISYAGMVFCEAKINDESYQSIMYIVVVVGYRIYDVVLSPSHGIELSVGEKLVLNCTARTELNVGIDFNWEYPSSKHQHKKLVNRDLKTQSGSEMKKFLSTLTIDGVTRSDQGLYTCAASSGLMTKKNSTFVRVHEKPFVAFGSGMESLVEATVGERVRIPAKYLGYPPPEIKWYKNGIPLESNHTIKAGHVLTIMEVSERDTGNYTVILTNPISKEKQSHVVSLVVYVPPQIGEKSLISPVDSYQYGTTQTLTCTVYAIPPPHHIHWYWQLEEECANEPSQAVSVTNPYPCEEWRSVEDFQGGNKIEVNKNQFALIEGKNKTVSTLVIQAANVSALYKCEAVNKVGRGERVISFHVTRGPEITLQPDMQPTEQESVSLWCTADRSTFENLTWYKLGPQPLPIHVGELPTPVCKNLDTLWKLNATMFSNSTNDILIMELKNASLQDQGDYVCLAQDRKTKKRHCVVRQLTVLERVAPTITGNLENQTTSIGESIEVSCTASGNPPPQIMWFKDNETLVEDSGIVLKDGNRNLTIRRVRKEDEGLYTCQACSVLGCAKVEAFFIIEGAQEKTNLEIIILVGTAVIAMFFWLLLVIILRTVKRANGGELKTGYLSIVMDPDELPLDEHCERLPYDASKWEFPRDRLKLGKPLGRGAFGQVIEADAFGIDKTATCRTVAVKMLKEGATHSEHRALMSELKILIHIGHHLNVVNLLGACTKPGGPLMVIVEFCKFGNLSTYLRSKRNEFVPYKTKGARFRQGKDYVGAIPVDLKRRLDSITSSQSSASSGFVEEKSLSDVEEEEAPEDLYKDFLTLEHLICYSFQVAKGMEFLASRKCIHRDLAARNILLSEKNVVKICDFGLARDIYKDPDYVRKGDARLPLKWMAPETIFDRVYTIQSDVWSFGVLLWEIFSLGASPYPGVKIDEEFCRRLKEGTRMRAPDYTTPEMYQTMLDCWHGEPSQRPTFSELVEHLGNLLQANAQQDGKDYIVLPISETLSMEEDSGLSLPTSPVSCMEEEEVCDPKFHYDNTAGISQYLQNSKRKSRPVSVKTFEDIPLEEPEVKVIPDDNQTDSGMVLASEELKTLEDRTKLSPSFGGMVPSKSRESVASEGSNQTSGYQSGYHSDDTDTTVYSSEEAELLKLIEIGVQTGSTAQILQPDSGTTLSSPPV

Row | Structure (SMILES) | IC50 [1] [µM] | IC50 (VEGFR2 kinase) [µM] | further results
1 | CCOC(=O)CN1C(=O)C(CC(=O)c2ccc(Cl)cc2)Sc2ccccc21 (stereo not shown) [Compound 3c, Ethyl 2-(2-(2-(4-Chlorophenyl)-2-oxoethyl)-3-oxo-2H-benzo[b][1,4]thiazin-4(3H)-yl)acetate] | 4.39 |  | inhibition at 125 µg/mL [2]: 27.4%; inhibition at 500 µg/mL [2]: 53.6%
2 | O=C(CC1Sc2ccccc2NC1=O)c1ccc(Cl)c(Cl)c1 (stereo not shown) [Compound 2e, 2-(2-(3,4-Dichlorophenyl)-2-oxoethyl)-2H-benzo[b][1,4]thiazin-3(4H)-one] | 4.98 | 0.135 | 
3 | O=C(CC1Sc2ccccc2NC1=O)c1ccc(Cl)cc1 (stereo not shown) [Compound 2c, 2-(2-(4-Chlorophenyl)-2-oxoethyl)-2H-benzo[b] [1, 4]thiazin-3(4H)-one] | 1.29 |  | population of cells at G2/M phase (MCF-7 cells [3]): 1%; wound healing percentage (percentage wound healing area) at 0 h (MCF-7 cells [4]; 0 h, control 66.42 ± 1.20): 66.63 ± 0.66%; reduction in the area of the wound (percentage wound healing area) after 24 h (MCF-7 cells [4]; 24 h, control 43.23 ± 1.71): 61.98 ± 1.44%; inhibition at 125 µg/mL [2]: 31.6%; inhibition at 250 µg/mL [2]: 49.8%; inhibition at 500 µg/mL [2]: 75.4%
4 | O=C(CC1Sc2ccccc2NC1=O)c1ccc(F)c(F)c1 (stereo not shown) [Compound 2b, 2-(2-(3,4-Difluorophenyl)-2-oxoethyl)-2H-benzo[b][1,4]thiazin-3(4H)-one] | 1.37 | 0.0593 | 
5 | Cc1ccc(C(=O)CC2Sc3ccccc3NC2=O)cc1Cl (stereo not shown) [Compound 2f, 2-(2-(3-Chloro-4-methylphenyl)-2-oxoethyl)-2H-benzo[b][1,4]thiazin-3(4H)-one] | 3.7 | 0.0972 | 
6 | O=C(CC1Sc2ccccc2NC1=O)c1ccc(F)cc1 (stereo not shown) [Compound 2a, 2-(2-(4-Fluorophenyl)-2-oxoethyl)-2H-benzo[b][1,4]thiazin-3(4H)-one] | 2.26 | 0.0741 | 
7 | CCOC(=O)CN1C(=O)C(CC(=O)c2ccc(F)cc2)Sc2ccccc21 (stereo not shown) [Compound 3a, Ethyl 2-(2-(2-(4-Fluorophenyl)-2-oxoethyl)-3-oxo-2H-benzo[b][1,4]thiazin-4(3H)-yl)acetate] | 5.19 | 0.632 | 
8 | CCOC(=O)CN1C(=O)C(CC(=O)c2ccc(Br)cc2)Sc2ccccc21 (stereo not shown) [Compound 3d, Ethyl 2-(2-(2-(4-Bromophenyl)-2-oxoethyl)-3-oxo-2H-benzo[b][1,4]thiazin-4(3H)-yl)acetate] | 3.31 |  | 
9 | O=c1[nH]cc(F)c(=O)[nH]1 [5-fluorouracil, reference compound] | 7.79 |  | 
10 | O=C(CC1Sc2ccccc2NC1=O)c1ccc(Br)cc1 (stereo not shown) [Compound 2d, 2-(2-(4-Bromophenyl)-2-oxoethyl)-2H-benzo[b][1,4]thiazin-3(4H)-one] | 2.3 |  | 
11 | CCOC(=O)CN1C(=O)C(CC(=O)c2ccc(F)c(F)c2)Sc2ccccc21 (stereo not shown) [Compound 3b, Ethyl 2-(2-(2-(3,4-Difluorophenyl)-2-oxoethyl)-3-oxo-2H-benzo [b][1,4]thiazin-4 (3H)-yl)acetate] | 4.5 | 0.236 | 
